Marks after values point to notes of the source that are not given here.
Key:
IL-1β [1] = experiment: DCA-induced IBS in rats: colonic IL-1β expression by qPCR; assay type: in vivo, rat; settings: colonic tissue, two weeks oral daily, mean ± SEM
Protocol: (§1) Male Sprague Dawley rats (240-320 g) were administered DCA once daily on 3 consecutive days, and then divided into the different experimental groups (n=8): three received orally and daily CPM (40 and 100 mg/kg) or Gabapentin (70 mg/kg); a non IBS and an untreated control IBS group were also included. One and two weeks after, abdominal withdrawal reflex to colorectal distension (CRD) was semi quantitatively scored. Also the referred pain was evaluated with Von Frey filaments. After two weeks of treatment, all rats were sacrificed and the expression of different markers IL-1β and COX-2 evaluated in the colonic tissue by qPCR.

[2] = system: experimental model of irritable bowel syndrome (IBS) in rats induced by deoxycholic acid (DCA); experiment: DCA-induced IBS in rats: abdominal withdrawal reflex to colorectal distension (CRD); assay type: in vivo, rat; settings: oral daily, mean ± SEM
Protocol: as §1

[3] = system: experimental model of irritable bowel syndrome (IBS) in rats induced by deoxycholic acid (DCA); experiment: DCA-induced IBS in rats: referred pain with Von Frey filaments (AUC); assay type: in vivo, rat; settings: for referred pain (in words): Von Frey filaments; for AUC: oral daily, mean ± SEM
Protocol: as §1

COX-2 = experiment: DCA-induced IBS in rats: colonic COX-2 expression by qPCR; assay type: in vivo, rat; settings: colonic tissue, two weeks oral daily, mean ± SEM
Protocol: as §1

IL-6 = experiment: TNBS rat colitis: colonic IL-6 mRNA by real-time PCR; assay type: in vivo; settings: colon, oral daily 7 days, mean ± SEM
Protocol: (§2) Female Wistar rats (180-200 g) were randomly assigned to nine groups (n=10). Three groups received treatment with CaPyr (20, 40 and 100 mg/kg); other three received treatment with ethyl pyruvate (20, 40 and 100 mg/kg); and the remaining was treated with sulphasalazine (30 mg/kg). All compounds were dissolved in 1 ml of carboxymethylcellulose (0.2%) in water solution, and administered daily by oral gavage. An untreated TNBS control group and a non-colitic group were included for reference, which received the vehicle used to administer the test compounds. Colonic inflammation was induced in control and treated groups as generally described (see Galvez et al. 2014). Briefly, rats were fasted overnight, anesthetized with halothane and given TNBS dissolved in 0.25 ml of 50% ethanol (v/v) by means of a Teflon cannula inserted 8 cm through the anus. During and after TNBS administration, the rats were kept in a head-down position until they recovered from anaesthesia, and then returned to their cages. Rats from the non-colitic group were administered intracolonically 0.25 ml of phosphate buffered saline instead of TNBS. The treatments were given from the day of the colitis induction until the sacrifice of the rats with an overdose of halothane, seven days later. Animal body weights, occurrence of diarrhoea, and water and food intake were recorded daily throughout all the experiments. Once the animals were sacrificed, the colon was removed aseptically and placed on an ice-cold plate, longitudinally opened and cleaned from their luminal contents with cold saline. Afterwards, it was weighed and its length measured under a constant load (2 g). Each colon was scored for macroscopically visible damage on a 0-10 scale by two observers unaware of the experiment, according to the criteria described before (see Galvez et al. 2014). Colon samples (0.5 cm^2) containing all the layers were taken from a region of the inflamed colon corresponding to the adjacent segment to the gross macroscopic damage and were fixed in 4% buffered formaldehyde for the histological studies. Equivalent colonic segments were also obtained from the non-colitic group. The colon was subsequently minced, aliquoted and kept frozen at −80° C. until biochemical determinations and RNA extraction was performed.
(§3) Analysis of gene expression in colonic samples by RT-qPCR Total RNA from colonic samples was isolated using Trizol® (Thermo Fisher Scientific Inc., Waltham, Mass. USA) following the manufacturer's protocol. All RNA samples were quantified with the Thermo Scientific NanoDrop™ 2000 Spectrophotometer (Thermo Fisher Scientific Inc., Waltham, Mass. USA) and […] of RNA were reverse transcribed using oligo(dT) primers (Promega, Southampton, UK).
(§4) Real time quantitative PCR amplification and detection was performed on optical-grade 48 well plates in an Eco™ Real-Time PCR System (Illumina, CA, USA) with 20 ng of cDNA, the KAPA SYBR® FAST qPCR Master Mix (Illumina, CA, USA) and specific primers at their annealing temperature (Ta). To normalize mRNA expression, the expression of the housekeeping gene, glyceraldehyde-3-phosphate dehydrogenase (GAPDH) was measured. The mRNA relative quantitation was calculated using the ΔΔCt method.

IL-1β [4] = experiment: TNBS rat colitis: colonic IL-1β by ELISA; assay type: in vivo; settings: colonic tissue, oral daily 7 days, mean ± SEM
Protocol: as §2
(§5) Myeloperoxidase (MPO) activity was measured according to the technique described previously (Krawiszet al., 1984); the results were expressed as MPO units per gram of wet tissue; one unit of MPO activity was defined as that degrading 1 μmol hydrogen peroxide/min at 25° C. Total glutathione (GSH) content was quantified with the recycling assay described by Anderson (1985), and the results were expressed as nmol/g wet tissue. In order to evaluate tissue IL-1β levels, the colonic samples were homogenized in phosphate buffered saline supplemented with 0.1% sodium dodecyl sulfate (SDS), 0.1% sodium deoxycholate, 1% Triton X-100 and protease and phosphatase inhibitors (aprotinin, leupeptin and phenylmethylsulfonyl fluoride). The cytokine was quantified by enzyme-linked immunoabsorbent assay (R&D Systems Inc., Minneapolis, Minn., USA) and the results were expressed as pg/g wet tissue.

CINC-1 = experiment: TNBS rat colitis: colonic CINC-1 mRNA by real-time PCR; assay type: in vivo; settings: colon, oral daily 7 days, mean ± SEM
Protocol: as §2, §3, §4

MCP-1 = experiment: TNBS rat colitis: colonic MCP-1 mRNA by real-time PCR; assay type: in vivo; settings: colon, oral daily 7 days, mean ± SEM
Protocol: as §2, §3, §4

IL-17 = experiment: TNBS rat colitis: colonic IL-17 mRNA by real-time PCR; assay type: in vivo; settings: colon, oral daily 7 days, mean ± SEM
Protocol: as §2, §3, §4

[5] = system: TNBS experimental rat colitis; experiment: TNBS rat colitis: colonic macroscopic damage score and weight/length ratio; assay type: in vivo; settings: for Damage Score (0-10) / Weight/length: TNBS rat colitis, oral daily 7 days, mean ± SEM; for Weight/length: colon
Protocol: as §2

IL-23 = experiment: TNBS rat colitis: colonic IL-23 mRNA by real-time PCR; assay type: in vivo; settings: colon, oral daily 7 days, mean ± SEM
Protocol: as §2, §3, §4

IL-12 = experiment: TNBS rat colitis: colonic IL-12 mRNA by real-time PCR; assay type: in vivo; settings: colon, oral daily 7 days, mean ± SEM
Protocol: as §2, §3, §4

MUC-2 = experiment: TNBS rat colitis: colonic MUC-2 mRNA by real-time PCR; assay type: in vivo; settings: colon, oral daily 7 days, mean ± SEM
Protocol: as §2, §3, §4

iNOS = experiment: TNBS rat colitis: colonic iNOS mRNA by real-time PCR; assay type: in vivo; settings: colon, oral daily 7 days, mean ± SEM
Protocol: as §2, §3, §4

IL-1β [6] = experiment: TNBS rat colitis: colonic IL-1β mRNA by real-time PCR; assay type: in vivo; settings: colon, oral daily 7 days, mean ± SEM
Protocol: as §2, §3, §4

glutathione (GSH) = experiment: TNBS rat colitis: colonic total glutathione (GSH) content; assay type: in vivo; settings: colonic tissue, oral daily 7 days, mean ± SEM
Protocol: as §2, §5

ICAM-1 = experiment: TNBS rat colitis: colonic ICAM-1 mRNA by real-time PCR; assay type: in vivo; settings: colon, oral daily 7 days, mean ± SEM
Protocol: as §2, §3, §4

myeloperoxidase (MPO) = experiment: TNBS rat colitis: colonic myeloperoxidase (MPO) activity; assay type: in vivo; settings: colonic tissue, oral daily 7 days, mean ± SEM
Protocol: as §2, §5

TFF-3 = experiment: TNBS rat colitis: colonic TFF-3 mRNA by real-time PCR; assay type: in vivo; settings: colon, oral daily 7 days, mean ± SEM
Protocol: as §2, §3, §4

[7] = system: TNBS experimental rat colitis; experiment: TNBS rat colitis: microscopic (histological) damage score; assay type: in vivo; settings: oral daily 7 days, mean ± SEM
Protocol: as §2
Cross-sections were selected and embedded in paraffin. Full-thickness sections of 5 μm were obtained at different levels and stained with haematoxylin and eosin. The histological damage was evaluated by a pathologist observer, who was blinded to the experimental groups, according to the criteria previously described by Galvez.

NCC1(CC(=O)O)CCCCC1 [Gabapentin]
qPCR IL-1β (IL-1β [1]; 30 mg/kg (table)): 8.28 ± 1.38^c fold increase
CRD ([2]; 30 mg/kg (table)): 0.25 ± 0.1^a units
referred pain (in words) [3]: attenuated
AUC ([3]; 30 mg/kg (table)): 27.30 ± 6.83^a arbitrary units
qPCR COX-2 (COX-2; 30 mg/kg (table)): 1.74 ± 0.36^c fold increase

calcium pyruvate [CaPyr]
IL-6 mRNA expression (IL-6; 20 mg/kg): 5.41 ± 1.01 fold increase
IL-6 mRNA expression (IL-6; 40 mg/kg): 3.20 ± 1.20 fold increase
IL-6 mRNA expression (IL-6; 100 mg/kg): 4.61 ± 1.01 fold increase
IL-1β (ELISA) (IL-1β [4]; 20 mg/kg): 1095.0 ± 165.0 ng/g tissue
IL-1β (ELISA) (IL-1β [4]; 40 mg/kg): 765.0 ± 60.0 ng/g tissue
IL-1β (ELISA) (IL-1β [4]; 100 mg/kg): 810.1 ± 120.0 ng/g tissue
CINC-1 mRNA expression (CINC-1; 20 mg/kg): 3.59 ± 0.49 fold increase
CINC-1 mRNA expression (CINC-1; 40 mg/kg): 2.93 ± 0.57 fold increase
CINC-1 mRNA expression (CINC-1; 100 mg/kg): 3.50 ± 0.90 fold increase
MCP-1 mRNA expression (MCP-1; 20 mg/kg): 3.03 ± 0.49 fold increase
MCP-1 mRNA expression (MCP-1; 40 mg/kg): 1.80 ± 0.37 fold increase
MCP-1 mRNA expression (MCP-1; 100 mg/kg): 2.13 ± 0.41 fold increase
IL-17 mRNA expression (IL-17; 20 mg/kg): 0.84 ± 0.09 fold increase
IL-17 mRNA expression (IL-17; 40 mg/kg): 0.63 ± 0.27 fold increase
IL-17 mRNA expression (IL-17; 100 mg/kg): 1.83 ± 0.48 fold increase
Damage Score (0-10) ([5]; 20 mg/kg): 7.1 ± 0.4
Damage Score (0-10) ([5]; 40 mg/kg): 5.7 ± 0.4
Damage Score (0-10) ([5]; 100 mg/kg): 6.6 ± 0.6
Weight/length ([5]; 20 mg/kg): 186.0 ± 22.8 mg/cm
Weight/length ([5]; 40 mg/kg): 184.6 ± 25.1 mg/cm
Weight/length ([5]; 100 mg/kg): 198.9 ± 15.0 mg/cm
effect in TNBS-induced colitis (in words) ([5]; rats, 20, 40 and 100 mg/kg body weight, 7 days oral treatment): intestinal anti-inflammatory effects
efficacy in TNBS colitis compared with the other treatments (in words) ([5]; rats, 7 days oral treatment): more effective than ethyl pyruvate and even better than the therapeutic drug Sulphasalazine
IL-23 mRNA expression (IL-23; 20 mg/kg): 1.47 ± 0.24 fold increase
IL-23 mRNA expression (IL-23; 40 mg/kg): 1.02 ± 0.21 fold increase
IL-23 mRNA expression (IL-23; 100 mg/kg): 1.98 ± 0.30 fold increase
IL-12 mRNA expression (IL-12; 20 mg/kg): 1.09 ± 0.13 fold increase
IL-12 mRNA expression (IL-12; 40 mg/kg): 0.66 ± 0.18 fold increase
IL-12 mRNA expression (IL-12; 100 mg/kg): 1.62 ± 0.30 fold increase
MUC-2 mRNA expression (MUC-2; 20 mg/kg): 0.50 ± 0.14 fold increase
MUC-2 mRNA expression (MUC-2; 40 mg/kg): 0.53 ± 0.16 fold increase
MUC-2 mRNA expression (MUC-2; 100 mg/kg): 0.56 ± 0.11 fold increase
iNOS mRNA expression (iNOS; 20 mg/kg): 10.37 ± 1.83 fold increase
iNOS mRNA expression (iNOS; 40 mg/kg): 8.85 ± 3.36 fold increase
iNOS mRNA expression (iNOS; 100 mg/kg): 9.15 ± 1.53 fold increase
IL-1β mRNA expression (IL-1β [6]; 20 mg/kg): 3.90 ± 0.61 fold increase
IL-1β mRNA expression (IL-1β [6]; 40 mg/kg): 2.40 ± 0.61 fold increase
IL-1β mRNA expression (IL-1β [6]; 100 mg/kg): 4.80 ± 0.90 fold increase
GSH (glutathione (GSH); 20 mg/kg): 389 ± 55 nmol/g tissue
GSH (glutathione (GSH); 40 mg/kg): 675 ± 67 nmol/g tissue
GSH (glutathione (GSH); 100 mg/kg): 768 ± 100 nmol/g tissue
ICAM-1 mRNA expression (ICAM-1; 20 mg/kg): 1.64 ± 0.25 fold increase
ICAM-1 mRNA expression (ICAM-1; 40 mg/kg): 0.95 ± 0.19 fold increase
ICAM-1 mRNA expression (ICAM-1; 100 mg/kg): 2.77 ± 0.44 fold increase
MPO (myeloperoxidase (MPO); 20 mg/kg): 48.2 ± 7.2 mU/g tissue
MPO (myeloperoxidase (MPO); 40 mg/kg): 48.8 ± 8.2 mU/g tissue
MPO (myeloperoxidase (MPO); 100 mg/kg): 57.7 ± 11.5 mU/g tissue
TFF-3 mRNA expression (TFF-3; 20 mg/kg): 0.84 ± 0.23 fold increase
TFF-3 mRNA expression (TFF-3; 40 mg/kg): 0.67 ± 0.17 fold increase
TFF-3 mRNA expression (TFF-3; 100 mg/kg): 0.99 ± 0.19 fold increase
Microscopic Damage Score (0-59) ([7]; 20 mg/kg): 27 ± 2
Microscopic Damage Score (0-59) ([7]; 40 mg/kg): 18 ± 5
Microscopic Damage Score (0-59) ([7]; 100 mg/kg): 13 ± 2

calcium pyruvate monohydrate [CPM]
qPCR IL-1β (IL-1β [1]; 40 mg/kg): 7.82 ± 2.07^c fold increase
qPCR IL-1β (IL-1β [1]; 100 mg/kg): 5.52 ± 1.15^c fold increase
CRD ([2]; 40 mg/kg): 1.30 ± 0.14^c units
CRD ([2]; 100 mg/kg): 0.70 ± 0.14^a,c units
referred pain (in words) [3]: attenuated
AUC ([3]; 40 mg/kg): 104.65 ± 20.48^a arbitrary units
AUC ([3]; 100 mg/kg): 63.70 ± 22.75^a arbitrary units
qPCR COX-2 (COX-2; 40 mg/kg): 2.47 ± 0.58^c fold increase
qPCR COX-2 (COX-2; 100 mg/kg): 1.60 ± 0.36^c fold increase

— patent US20170087106A1, “Method for supporting gut health” (priority 2015, published 2017)
